Assay results as given in patent US8076487B2, “Pyridone derivative and herbicide” (Kumiai Chemical Industry Co., Ltd., priority 2006, dated 2011).

Key:
Assay type in all cases: in vivo
[1] = test system: green foxtail (Setaria viridis (L.) P. Beauv.); experiment: Test Example 3: herbicidal effect by application to upland field (foliage treatment); conditions: foliage treatment, plants grown two weeks, 1,000 g active ingredient per hectare, 14th day after application
In short: (§1)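 A single foliar application of a water-diluted wettable powder, at 1,000 g of active ingredient per hectare, was made to plants raised for two weeks from seed in field soil. Herbicidal activity was judged visually after a further 14 days in the greenhouse.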

[2] = test system: barnyardgrass (Echinochloa crus-galli (L.) P. Beauv. var. crus-galli); experiment: as above; conditions: foliage treatment, plants grown two weeks, 1,000 g active ingredient per hectare, 14th day after application
In short: as §1

[3] = test system: slender amaranth (Amaranthus viridis L.); experiment: as above; conditions: foliage treatment, plants grown two weeks, 1,000 g active ingredient per hectare, 14th day after application
In short: as §1

[4] = test system: velvetleaf (Abutilon theophrasti medicus); experiment: as above; conditions: foliage treatment, plants grown two weeks, 1,000 g active ingredient per hectare, 14th day after application
In short: as §1

[5] = test system: heartshape false pickerelweed (Monochoria vaginalis (Burm.f.) C.Presl); experiment: Test Example 1: herbicidal effect by soil application to paddy field; conditions: paddy field soil application; active ingredient 1,000 g per 1 hectare; wettable powder added dropwise to water surface the day after sowing; examined on the 21st day after application
In short: (§2)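 Under greenhouse conditions, seeds sown on puddled paddy soil in 100 cm2 pots under 3 cm of standing water received the test compound; injury was assessed with a standard scoring scheme three weeks (day 21) after treatment.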

[6] = test system: Japanese bulrush (Scirpus juncoides Roxb.); experiment: as above; conditions: paddy field soil application; active ingredient 1,000 g per 1 hectare; wettable powder added dropwise to water surface the day after sowing; examined on the 21st day after application
In short: as §2

[7] = test system: early watergrass (Echinochloa oryzicola Vasing); experiment: as above; conditions: paddy field soil application; active ingredient 1,000 g per 1 hectare; wettable powder added dropwise to water surface the day after sowing; examined on the 21st day after application
In short: as §2

[8] = test system: green foxtail (Setaria viridis (L.) P. Beauv.); experiment: Test Example 2: herbicidal effect by soil application to upland field; conditions: soil surface spray, upland field soil, 1,000 g active ingredient per hectare, 21st day after application
In short: (§3)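 Pots of field soil, seeds sown and soil-covered; wettable powder diluted in water sprayed on soil at 1,000 g a.i./ha (1,000 L/ha). Greenhouse-grown; herbicidal effect rated per standard at 21 days post-application.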

[9] = test system: barnyardgrass (Echinochloa crus-galli (L.) P. Beauv. var. crus-galli); experiment: as above; conditions: soil surface spray, upland field soil, 1,000 g active ingredient per hectare, 21st day after application
In short: as §3

[10] = test system: slender amaranth (Amaranthus viridis L.); experiment: as above; conditions: soil surface spray, upland field soil, 1,000 g active ingredient per hectare, 21st day after application
In short: as §3

[11] = test system: velvetleaf (Abutilon theophrasti medicus); experiment: as above; conditions: soil surface spray, upland field soil, 1,000 g active ingredient per hectare, 21st day after application
In short: as §3

Row | Compound | herbicidal effect (index), Green Foxtail [1] | herbicidal effect (index), Barnyardgrass [2] | herbicidal effect (index), Slender Amaranth [3] | herbicidal effect (index), Velvetleaf [4] | herbicidal effect, Monochoria vaginalis (Burm. f.) C. Presl [5] | herbicidal effect, Scirpus juncoides Roxb. [6] | herbicidal effect, Echinochloa oryzicola Vasing [7] | herbicidal effect (index), Green Foxtail [8] | herbicidal effect (index), Barnyardgrass [9] | herbicidal effect (index), Slender Amaranth [10] | herbicidal effect (index), Velvetleaf [11]
1 | O=C1CCCC(O)=C1C(=O)c1ccc(C(F)(F)F)n(CS(=O)(=O)C2CC2)c1=O [I-53] | 5 (90% or more of herbicidal effect and crop phytotoxicity) | 5 (90% or more of herbicidal effect and crop phytotoxicity) | 5 (90% or more of herbicidal effect and crop phytotoxicity) | 5 (90% or more of herbicidal effect and crop phytotoxicity) | 5 (90% or more of herbicidal effect and crop phytotoxicity) | 5 (90% or more of herbicidal effect and crop phytotoxicity) | 5 (90% or more of herbicidal effect and crop phytotoxicity) | 5 (90% or more of herbicidal effect and crop phytotoxicity) | 5 (90% or more of herbicidal effect and crop phytotoxicity) | 5 (90% or more of herbicidal effect and crop phytotoxicity) | 5 (90% or more of herbicidal effect and crop phytotoxicity)
2 | CC(C)S(=O)(=O)Cn1c(C(F)(F)F)ccc(C(=O)C2=C(O)CCCC2=O)c1=O [I-54] | 5 (90% or more of herbicidal effect and crop phytotoxicity) | 5 (90% or more of herbicidal effect and crop phytotoxicity) | 5 (90% or more of herbicidal effect and crop phytotoxicity) | 5 (90% or more of herbicidal effect and crop phytotoxicity) | 5 (90% or more of herbicidal effect and crop phytotoxicity) | 5 (90% or more of herbicidal effect and crop phytotoxicity) | 5 (90% or more of herbicidal effect and crop phytotoxicity) | 4 (70 to less than 90% of herbicidal effect and crop phytotoxicity) | 5 (90% or more of herbicidal effect and crop phytotoxicity) | 5 (90% or more of herbicidal effect and crop phytotoxicity) | 5 (90% or more of herbicidal effect and crop phytotoxicity)
3 | CC(C)(C)SCn1c(C(F)(F)F)ccc(C(=O)C2=C(O)CCCC2=O)c1=O [I-55] | 5 (90% or more of herbicidal effect and crop phytotoxicity) | 5 (90% or more of herbicidal effect and crop phytotoxicity) | 5 (90% or more of herbicidal effect and crop phytotoxicity) | 5 (90% or more of herbicidal effect and crop phytotoxicity) | 5 (90% or more of herbicidal effect and crop phytotoxicity) | 5 (90% or more of herbicidal effect and crop phytotoxicity) | 5 (90% or more of herbicidal effect and crop phytotoxicity) | 5 (90% or more of herbicidal effect and crop phytotoxicity) | 5 (90% or more of herbicidal effect and crop phytotoxicity) | 5 (90% or more of herbicidal effect and crop phytotoxicity) | 5 (90% or more of herbicidal effect and crop phytotoxicity)
4 | CC(C)(C)S(=O)(=O)Cn1c(C(F)(F)F)ccc(C(=O)C2=C(O)CCCC2=O)c1=O [I-56] | 5 (90% or more of herbicidal effect and crop phytotoxicity) | 5 (90% or more of herbicidal effect and crop phytotoxicity) | 5 (90% or more of herbicidal effect and crop phytotoxicity) | 5 (90% or more of herbicidal effect and crop phytotoxicity) | 5 (90% or more of herbicidal effect and crop phytotoxicity) | 5 (90% or more of herbicidal effect and crop phytotoxicity) | 5 (90% or more of herbicidal effect and crop phytotoxicity) | 5 (90% or more of herbicidal effect and crop phytotoxicity) | 4 (70 to less than 90% of herbicidal effect and crop phytotoxicity) | 5 (90% or more of herbicidal effect and crop phytotoxicity) | 5 (90% or more of herbicidal effect and crop phytotoxicity)
5 | O=C1CCCC(O)=C1C(=O)c1ccc(C(F)(F)F)n(CSCC2CC2)c1=O [I-57] | 5 (90% or more of herbicidal effect and crop phytotoxicity) | 5 (90% or more of herbicidal effect and crop phytotoxicity) | 5 (90% or more of herbicidal effect and crop phytotoxicity) | 5 (90% or more of herbicidal effect and crop phytotoxicity) | 5 (90% or more of herbicidal effect and crop phytotoxicity) | 5 (90% or more of herbicidal effect and crop phytotoxicity) | 5 (90% or more of herbicidal effect and crop phytotoxicity) | 5 (90% or more of herbicidal effect and crop phytotoxicity) | 5 (90% or more of herbicidal effect and crop phytotoxicity) | 5 (90% or more of herbicidal effect and crop phytotoxicity) | 5 (90% or more of herbicidal effect and crop phytotoxicity)
6 | O=C1CCCC(O)=C1C(=O)c1ccc(C(F)(F)F)n(CS(=O)(=O)CC2CC2)c1=O [I-58] | 5 (90% or more of herbicidal effect and crop phytotoxicity) | 5 (90% or more of herbicidal effect and crop phytotoxicity) | 5 (90% or more of herbicidal effect and crop phytotoxicity) | 5 (90% or more of herbicidal effect and crop phytotoxicity) | 5 (90% or more of herbicidal effect and crop phytotoxicity) | 5 (90% or more of herbicidal effect and crop phytotoxicity) | 5 (90% or more of herbicidal effect and crop phytotoxicity) | 5 (90% or more of herbicidal effect and crop phytotoxicity) | 5 (90% or more of herbicidal effect and crop phytotoxicity) | 5 (90% or more of herbicidal effect and crop phytotoxicity) | 5 (90% or more of herbicidal effect and crop phytotoxicity)
